This note sets out measurements from ChEMBL document CHEMBL1121542, “Beta-adrenergic blocking agents. 20. (3-Hydroxyprop-1-enyl)-substituted 1-(aryloxy)-3-(alkylamino)propan-2-ols” (J Med Chem, 1980).

Molecules are shown by their SMILES. Active and inactive are the calls of the source. The calls are words filed in the database; no cut-off is given here.

The subject of test [1] is Adrenergic receptor beta. Briefly: Compound was evaluated in vivo for beta-Adrenoceptor blocking potency in cat and is expressed as total dose, infused over a period of 30 minutes, causing 50% inhibition of the tachycardia (iv administration); NA means not active. The test is classed as functional, organism-based. The following applies: Felis catus.
For test [2], the target named is Adrenergic receptor beta (Homo sapiens) (UniProt P08588+P07550+P13945). The experiment in a line: Compound was evaluated in vivo for beta-Adrenoceptor blocking potency in cat measured as the degree (percent) of blockade of the vasopressor response at the dose level. The following applies: Felis catus; target entry is the homologue from another species. The test is classed as functional, organism-based.

`CCOc1cc(/C=C/CO)ccc1OCC(O)CNC(C)C` (stereo not given): in test [1], the Inhibition (commonly how much of the control response was suppressed) is “inactive”. For `C=CCc1cc(/C=C/CO)ccc1OCC(O)CNC(C)(C)C` (stereo not given), the Inhibition entry in test [1] was “inactive”. In the case of `COc1ccc(/C=C/CO)cc1OCC(O)CNC(C)C` (stereo not given), the Inhibition entry in test [1] was “inactive”. For the molecule `CC(C)(C)NCC(O)COc1ccc(/C=C/CO)cc1Cl` (stereo not given), in test [2], the Inhibition amounted to 76%.

In the case of `CC(C)NCC(O)COc1cc(/C=C/CO)ccc1Br` (stereo not given), the Inhibition entry in test [1] was “inactive”.
